Data on 6 molecules can be found in US4770996A, “Identification of individuals predisposed toward alcohol abuse” (priority 1986, dated 1988).

Assay [1] relates to platelet adenylate cyclase. Put plainly: Platelet membrane adenylate cyclase (AC) assay, 32P-ATP to 32P-cAMP. Also on record: Adenylate Cyclase Activity - CsF-Stimulated / Adenylate Cyclase Activity - CsF-Stimulated, Mean ± SD: unit not given here. The conditions noted are these: for Enzyme Activity +PGE1 (1 uM) / Enzyme Activity +Gpp(NH)p: mean ± SD; for Enzyme Activity +Gpp(NH)p: Gpp(NH)p 10 uM; for Adenylate Cyclase Activity - CsF-Stimulated / Adenylate Cyclase Activity - CsF-Stimulated, Mean ± SD / Enzyme Activity +CsF: CsF 10 mM. Type of assay: biochemical, human. As to the method: Platelets were prepared from whole blood (20 ml) which was obtained by venipuncture from healthy volunteers and alcoholic subjects. After standing at room temperature for approximately three to four hours in citrate-phosphate-dextrose solution, each blood sample was centrifuged at 180×G for two minutes. […] The PRP was centrifuged at 16,000 g for ten minutes. The pellet was resuspended in 50 ml of cold 50 mM Tris-HCl, pH 7.5, containing […] NaCl and 20 mM ethylene diamine tetraacetic acid (EDTA). The centrifugation was repeated twice, and the final pellet was resuspended in 1 ml of cold 5 mM Tris-HCl, pH 7.5, containing 5 mM EDTA. Suspensions were rapidly frozen at -70° C., and samples were stored at -70° C. for no longer than four weeks prior to assay. AC activity was assayed by a modification of previously described methods, Hoffman and Tabakoff, J. Pharmacol. Exptl. […] Platelets were thawed at room temperature, aliquots of platelets were diluted to 4 ml with 5 mM Tris-HCl buffer containing 5 mM EDTA, and the suspension was centrifuged at 39,000×G for ten minutes at 4° C. […] The reaction was stopped by placing the tubes in a boiling water bath for three minutes. […] The ^32 p-cAMP was isolated by sequential chromatography on Dowex (Sigma Chemical Co., St. Louis, Mo.) and alumina columns (Sigma Chemical Co., St. Louis, Mo.), Salomon et. al., Anal. […] To each column effluent, 10 ml of scintilation cocktail was added, and ^32 p-cAMP was quantitated in a liquid scintillation spectrometer. All values were corrected for percentage recovery of the product (^32 p-cAMP).

Assay [2] has as its system platelet adenylate cyclase. The conditions noted are these: Jakobs et al., J. Recep. Res. 4:443-458, 1984; cited from earlier work.
Assay [3] concerns the target T1, platelet monoamine oxidase (MAO) (Homo sapiens, UniProt P27338).
T1 construct: contained approximately 15 ug of platelet protein; from tissue; host or cells: platelets (membranes) from whole blood of volunteers and alcoholic subjects
T1 sequence (P27338 1-520): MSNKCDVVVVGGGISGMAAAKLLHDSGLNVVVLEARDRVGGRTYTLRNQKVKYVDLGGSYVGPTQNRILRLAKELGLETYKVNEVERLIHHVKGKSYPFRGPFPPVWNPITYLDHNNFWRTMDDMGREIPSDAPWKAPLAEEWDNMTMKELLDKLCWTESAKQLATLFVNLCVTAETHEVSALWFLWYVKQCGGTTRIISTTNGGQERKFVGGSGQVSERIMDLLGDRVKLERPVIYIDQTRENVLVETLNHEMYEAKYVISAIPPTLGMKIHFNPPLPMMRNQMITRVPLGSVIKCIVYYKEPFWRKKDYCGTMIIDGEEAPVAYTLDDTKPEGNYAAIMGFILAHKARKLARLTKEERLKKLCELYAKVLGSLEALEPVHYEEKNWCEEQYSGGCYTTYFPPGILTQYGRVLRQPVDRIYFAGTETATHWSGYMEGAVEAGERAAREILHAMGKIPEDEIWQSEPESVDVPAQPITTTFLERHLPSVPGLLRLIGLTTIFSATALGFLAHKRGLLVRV
Put plainly: Platelet monoamine oxidase (MAO) assay, deamination of 14C-PEA. Type of assay: biochemical. The conditions noted are these: for Percent Inhibition by 400 mM Ethyl Alcohol / Percent Inhibition by 400 mM Ethyl Alcohol, Mean ± SD / Percent Inhibition by 400 mM ETOH: 12 uM PEA; for Percent Inhibition by 400 mM ETOH: mean ± SD. As to the method: Platelets were prepared from whole blood (20 ml) which was obtained by venipuncture from healthy volunteers and alcoholic subjects. After standing at room temperature for approximately three to four hours in citrate-phosphate-dextrose solution, each blood sample was centrifuged at 180×G for two minutes. The platelet-rich plasma (PRP) was carefully removed and platelet count was determined from aliquots (20 ul) of the PRP with a Coulter S-plus Thrombocounter. The PRP was centrifuged at 16,000 g for ten minutes. The pellet was resuspended in 50 ml of cold 50 mM Tris-HCl, pH 7.5, containing […] NaCl and 20 mM ethylene diamine tetraacetic acid (EDTA). The centrifugation was repeated twice, and the final pellet was resuspended in 1 ml of cold 5 mM Tris-HCl, pH 7.5, containing 5 mM EDTA. Suspensions were rapidly frozen at -70° C., and samples were stored at -70° C. for no longer than four weeks prior to assay.
To measure the deamination of ^14 C-PEA, assay mixtures (total volume, 0.3 ml) contained approximately 15 ug of platelet protein. Reactions were carried out in 0.1 M sodium phosphate, pH 7.4, at 37° C. A five-minute preincubation period preceded the addition of substrate, and blanks were preincubated in the presence of 1×10^-3 M pargyline. Appropriate concentrations of ^14 C-PEA (10,000 dpm per nmole) were added to initiate the reaction, and the incubation was carried out for 15 minutes. The reaction was stopped by placing the tubes in an ice bath and adding 1.0 ml of ice-cold unlabeled PEA solution (10^-4 M) to each assay tube. A 1-ml aliquot was then removed from each tube and placed on an Amberlite™ ion exchange column, Tabakoff et. al., Psychopharmacol. 87:152 (1985). The columns were washed with two 1-ml portions of distilled water and the effluent was collected in scintillation vials. Two additional ml of water and 20 ml of scintillation fluid were added to each vial, and radioactivity was determined in a liquid scintillation spectrometer. To study the effects of ethanol or other alcohols on MAO activity, the alcohols were added to incubation mixtures five minutes prior to the addition of substrate.

Structures are written as SMILES.

A word on the Km: it is the substrate concentration at which the rate is half of its maximum. As to `Nc1ncnc2c1ncn2[C@@H]1O[C@H](COP(=O)(O)OP(=O)(O)OP(=O)(O)O)[C@@H](O)[C@H]1O` [Mg-adenosine triphosphate], in assay [1] (platelets of control subjects, 10 mM Mg++, varying ATP, mean±SD, n=3), the “maximal activity (Vmax) of adenylate cyclase” value was 15.1±2.4 pmole cAMP produced/min/mg pro. Also, the Km in assay [1] (platelets of control subjects, 10 mM Mg++, varying ATP, mean±SEM, n=3, read-out: Km of adenylate cyclase for Mg-adenosine triphosphate (ATP)) is 20.1 ± 3.8 µM.
For `CCCCC[C@H](O)/C=C/[C@H]1[C@H](O)CC(=O)[C@@H]1CCCCCCC(=O)O` [PGE1, prostaglandin E1], the “Enzyme Activity +PGE1 (1 uM)” value in assay [1] (platelets of Alcoholics, n=34, significant vs control) is 84.4 ± 36.1 pmole cAMP/mg protein/minute; in assay [1] (platelets of Controls, n=21) it was 115.5 ± 32.9 pmole cAMP/mg protein/minute; in assay [1] (platelets of Recovering Alcoholics, n=8, significant vs control and vs alcoholics), 42.7 ± 12.8 pmole cAMP/mg protein/minute.
Turning to `[Na+]` [Na^+], the “effect of sodium ion on stimulation of platelet AC activity” value in assay [2] was “inhibits stimulation of platelet AC activity”.
Consider `Nc1nc2c(ncn2[C@@H]2O[C@H](COP(=O)(O)OP(=O)(O)NP(=O)(O)O)[C@@H](O)[C@H]2O)c(=O)[nH]1` [Gpp(NH)p, guanylylimidodiphosphate], for which the “Enzyme Activity +Gpp(NH)p” value is on record as 37.8 ± 14.4 pmole cAMP/mg protein/minute in assay [1] (platelets of Alcoholics, n=43, significant vs control); 50.4 ± 15.0 pmole cAMP/mg protein/minute in assay [1] (platelets of Controls, n=36); 37.2 ± 16.5 pmole cAMP/mg protein/minute in assay [1] (platelets of Recovering Alcoholics, n=23, significant vs control).
With `CCO` [ethyl alcohol], the “nature of MAO inhibition by ethyl alcohol added in vitro” value in assay [3] (in vitro, amount of inhibition depended on substrate concentration) is “reversible and was "competitive" in nature”. The “Percent Inhibition by 400 mM Ethyl Alcohol” value turned out to be 7.0% in assay [3] (patient No. 1, Sample 1 (baseline)); 7.6% in assay [3] (patient No. 1, Sample 2 (five days later)); 6.1% in assay [3] (patient No. 1, Sample 3 (six days later)); 13.1% in assay [3] (patient No. 2, Sample 1 (baseline)); 7.9% in assay [3] (patient No. 2, Sample 2 (five days later)); 9.8% in assay [3] (patient No. 2, Sample 3 (six days later)). Further, the “Percent Inhibition by 400 mM Ethyl Alcohol, Mean ± SD” value in assay [3] (patient No. 1, mean of 3 samples) amounted to 6.9 ± 0.8%; in assay [3] (patient No. 2, mean of 3 samples), 10.3 ± 2.6%. The “Percent Inhibition by 400 mM ETOH” value in assay [3] (platelets of Alcoholics, n=54, P < 0.01 vs control) was found to be 12.6 ± 7.0%; in assay [3] (platelets of Controls, n=28), 7.5 ± 6.9%; in assay [3] (platelets of Recovering Alcoholics, n=22, P < 0.05 vs control) it was 11.4 ± 6.2%.
On to `[Cs+].[F-]` [CsF, cesium fluoride], for which the “Adenylate Cyclase Activity - CsF-Stimulated” value in assay [1] (control subject No. 5, Sample 1) stood at 83.6; in assay [1] (control subject No. 5, Sample 2 (one week interval)), 69.5; in assay [1] (control subject No. 5, Sample 3 (one week interval)), 72.3; in assay [1] (control subject No. 6, Sample 1), 104.2; in assay [1] (control subject No. 6, Sample 2 (one week interval)), 98.0; in assay [1] (control subject No. 6, Sample 3 (one week interval)) it was 100.2. The “Adenylate Cyclase Activity - CsF-Stimulated, Mean ± SD” value turned out to be 75.1 ± 7.5 in assay [1] (control subject No. 5, mean of 3 samples) and 100.8 ± 3.1 in assay [1] (control subject No. 6, mean of 3 samples). Further, the “Enzyme Activity +CsF” value in assay [1] (platelets of Alcoholics, mean (SD 27.8), n=107, significant vs control) is 78.2 pmole cAMP/mg protein/minute; in assay [1] (platelets of Controls, mean (SD 28.7), n=49), 97.9 pmole cAMP/mg protein/minute; in assay [1] (platelets of Recovering Alcoholics, mean (SD 27.2), n=38, significant vs control), 70.6 pmole cAMP/mg protein/minute.
